For this assay, the target named is IDH1 R132H (Homo sapiens, UniProt O75874, R132H). In words: High Throughput Screening (HTS) for IDH1 R132H inhibitors (resazurin/NADPH fluorescence assay). Format: biochemical. To be noted: IDH1m; assay similar to Example 1; class symbols. The protocol: A compound described herein may be an inhibitor of IDH1m. […] B refers to an inhibitor of IDH1m with an IC50 between 1 μM and 50 μM. C refers to an inhibitor of IDH1m with an IC50 greater than 50 μM. D refers to a compound wherein an IC50 is not available.
IDH1 R132H, sequence (O75874 whole entry R132H): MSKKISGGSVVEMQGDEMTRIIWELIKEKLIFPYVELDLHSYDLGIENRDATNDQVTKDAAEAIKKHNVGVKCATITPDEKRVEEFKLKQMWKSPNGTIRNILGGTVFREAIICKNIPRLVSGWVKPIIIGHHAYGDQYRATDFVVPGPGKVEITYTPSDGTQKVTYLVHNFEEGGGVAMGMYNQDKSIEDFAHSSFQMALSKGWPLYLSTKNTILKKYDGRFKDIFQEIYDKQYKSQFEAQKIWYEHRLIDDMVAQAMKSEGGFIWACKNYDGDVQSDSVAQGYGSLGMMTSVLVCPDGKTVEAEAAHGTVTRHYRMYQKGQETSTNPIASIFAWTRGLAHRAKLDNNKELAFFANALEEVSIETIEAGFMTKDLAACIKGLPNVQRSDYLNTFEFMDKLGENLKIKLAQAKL
Assays were conducted in a volume of 76 μl assay buffer (150 mM NaCl, 10 mM MgCl2, 20 mM Tris pH 7.5, 0.03% bovine serum albumin) as follows in a standard 384-well plate: To 25 ul of substrate mix (8 uM NADPH, 2 mM aKG), 1 μl of test compound was added in DMSO. The plate was centrifuged briefly, and then 25 μl of enzyme mix was added (0.2 μg/ml ICDH1 R132H) followed by a brief centrifugation and shake at 100 RPM. The reaction was incubated for 50 minutes at room temperature, then 25 μl of detection mix (30 μM resazurin, […]) was added and the mixture further incubated for 5 minutes at room temperature. The conversion of resazurin to resorufine was detected by fluorescent spectroscopy at Ex544 Em590 c/o 590.

SMILES strings stand for the structures. pIC50: −log10 of the molar value. Where only a bound is given, the exact number is not on record here.

`Cc1ccc(S(=O)(=O)Nc2ccc(Cl)cc2)cc1C(=O)N1CCN(c2ccccc2)CC1` gave a pIC50 below 4.30.
For `CCCCc1ccc(NS(=O)(=O)c2ccc(C)c(C(=O)N3CCN(C(=O)NCC(C)C)CC3)c2)cc1`, the pIC50 is 4.30 to 6.00.
For `CCOC(=O)COc1ccc(NS(=O)(=O)c2ccc(C)c(C(=O)N3CCN(c4ccccc4OC)CC3)c2)cc1` the value was 4.30 to 6.00; for `COc1ccccc1N1CCN(C(=O)c2cc(S(=O)(=O)Nc3ccc(CCc4ccccc4)cc3)ccc2C)CC1`, 4.30 to 6.00.
Under `CCCCc1ccc(NS(=O)(=O)c2ccc(C)c(C(=O)N3CCN(c4ccccc4OCC(C)C)CC3)c2)cc1` stands 4.30 to 6.00; under `CCCCc1ccc(NS(=O)(=O)c2ccc(C)c(C(=O)N3CCN(c4ccc(OC)c(OC)c4)CC3)c2)cc1`, 4.30 to 6.00.
In turn, `COc1ccccc1N1CCN(C(=O)c2cc(S(=O)(=O)Nc3ccc(CCN4CCCC4)cc3)ccc2C)CC1` gave a pIC50 below 4.30.
Molecule `COc1ccccc1N1CCCN(C(=O)c2cccc(S(=O)(=O)Nc3ccccc3F)c2)CC1` showed a pIC50 of 4.30 to 6.00.
On to `COc1ccccc1N1CCN(C(=O)c2cccc(NS(=O)(=O)c3cccc4cccnc34)c2)CC1`, for which the pIC50 was below 4.30.
Under `CCCCc1ccc(NS(=O)(=O)c2ccc(C)c(C(=O)N3CCN(c4ccccc4C(F)(F)F)CC3)c2)cc1` stands 4.30 to 6.00.
In turn, `CCCCc1ccc(NS(=O)(=O)c2ccc(C)c(C(=O)N3CCN(c4ccccc4OCC4CC4)CC3)c2)cc1` gave a pIC50 of 4.30 to 6.00.
For `CCCCc1ccc(NS(=O)(=O)c2cc3c(c(C(=O)N4CCN(c5ccccc5OC)CC4)c2)OCCN3)cc1` the value was 4.30 to 6.00; for `COc1ccc(NS(=O)(=O)c2ccc(C)c(C(=O)N3CCN(c4ccccc4OC)CC3)c2)cc1`, 4.30 to 6.00.
Turning to `CCCCc1ccc(C(=O)Nc2cccc(C(=O)N3CCN(c4ccccc4OC)CC3)c2)cc1`, the pIC50 is 4.30 to 6.00.
For `O=C(c1cccc(S(=O)(=O)Nc2ccccc2F)c1)N1CCN(c2ccccc2)CC1` the value was below 4.30; for `CCCCc1ccc(NS(=O)(=O)c2ccc(F)c(C(=O)N3CCN(c4ccccc4OC)CC3)c2)cc1`, 4.30 to 6.00.
Under `CCCCc1ccc(C(=O)Nc2ccc(C)c(C(=O)N3CCN(c4ccccc4OC)CC3)c2)cc1` stands 4.30 to 6.00; under `COc1ccccc1NS(=O)(=O)c1cccc(C(=O)N2CCN(c3ccccc3)CC2)c1`, below 4.30; under `CCCCc1ccc(NS(=O)(=O)c2cc3c(c(C(=O)N4CCN(c5ccccc5OC)CC4)c2)OCCO3)cc1`, 4.30 to 6.00.
Under `COc1ccccc1N1CCN(C(=O)c2cccc(S(=O)(=O)Nc3ccccc3)c2)CC1` stands below 4.30; under `CCCCc1ccc(NS(=O)(=O)c2ccc(C)c(C(=O)N3CCN(c4ccc(OCCC)cc4)CC3)c2)cc1`, 4.30 to 6.00.
On to `COc1ccc(NS(=O)(=O)c2cccc(C(=O)N3CCCN(c4ccccc4OC)CC3)c2)cc1`, for which the negative-log IC50 (pIC50) is below 4.30.
For `COc1ccccc1N1CCN(C(=O)c2cc(S(=O)(=O)Nc3ccc(C(C)(C)C)cc3)ccc2C)CC1` the value was 4.30 to 6.00; for `COc1ccc(NS(=O)(=O)c2ccc(C)c(C(=O)N3CCN(c4ccccn4)CC3)c2)cc1`, below 4.30; for `CCCCc1ccc(NS(=O)(=O)c2ccc(C)c(C(=O)N3CCN(c4ccc(Cl)cc4)CC3)c2)cc1`, 4.30 to 6.00.
`CCOc1ccc(NS(=O)(=O)c2cccc(C(=O)N3CCCN(c4ccccc4OC)CC3)c2)cc1` gave a pIC50 below 4.30.
For `CCCCc1ccc(OC(=O)Nc2cccc(C(=O)N3CCN(c4ccccc4OC)CC3)c2)cc1` the value was below 4.30; for `CCCCc1ccc(NS(=O)(=O)c2ccc(C)c(C(=O)N3CCN(Cc4cc(C)c(C)cc4C)CC3)c2)cc1`, 4.30 to 6.00; for `CCCc1ccc(NS(=O)(=O)c2cccc(C(=O)N3CCN(c4ccccc4)CC3)c2)cc1`, 4.30 to 6.00.
As to `CCCCc1ccc(NS(=O)(=O)c2cccc(C(=O)N3CCN(c4ccnc5[nH]ccc45)CC3)c2)cc1`, the negative-log IC50 (pIC50) is 4.30 to 6.00.
Under `COc1ccccc1N1CCN(C(=O)c2cc(S(=O)(=O)Nc3ccc(C)c4cccnc34)ccc2C)CC1` stands 4.30 to 6.00; under `CCCCc1ccc(NS(=O)(=O)c2ccc(C)c(C(=O)N3CCN(C(=O)OCc4ccccc4)CC3)c2)cc1`, 4.30 to 6.00.
Turning to `O=C(c1cccc(S(=O)(=O)Nc2ccccc2F)c1)N1CCN(c2ccccn2)CC1`, the pIC50 was below 4.30.
Under `CCCCOc1ccc(NS(=O)(=O)c2ccc(C)c(C(=O)N3CCN(c4ccccc4OC)CC3)c2)cc1` stands 4.30 to 6.00; under `CCCCc1ccc(NS(=O)(=O)c2ccc(C)c(C(=O)N3CCN(CCCc4ccccc4)CC3)c2)cc1`, 4.30 to 6.00.
Under `CCCCc1ccc(NS(=O)(=O)c2cccc(C(=O)N3CCN(c4ncccn4)CC3)c2)cc1` stands 4.30 to 6.00; under `CCCCc1ccc(NS(=O)(=O)c2ccc(C)c(C(=O)N3CCN(c4ccccc4OCC)CC3)c2)cc1`, 4.30 to 6.00.
For `COCCOCOc1ccc(NS(=O)(=O)c2ccc(C)c(C(=O)N3CCN(c4ccccc4OC)CC3)c2)cc1` the value was 4.30 to 6.00; for `CCCCc1ccc(NS(=O)(=O)c2cccc(C(=O)N3CCN(c4ccccc4OC)CC3)c2)cc1`, 4.30 to 6.00.
As to `CCCc1ccc(NS(=O)(=O)c2ccc(C)c(C(=O)N3CCN(c4ccccc4OC)CC3)c2)cc1`, the pIC50 is 4.30 to 6.00.
For `COc1ccccc1NS(=O)(=O)c1cccc(C(=O)N2CCCN(c3ccccc3OC)CC2)c1` the value was below 4.30.
For `CCCCc1ccc(NS(=O)(=O)c2ccc(C)c(C(=O)N3CCN(c4ccc(F)c(OC)c4)CC3)c2)cc1` the value was 4.30 to 6.00.
Consider `COc1ccccc1N1CCN(C(=O)c2cc(S(=O)(=O)Nc3ccccc3)ccc2C)CC1`, for which the pIC50 is below 4.30.
For `CCOc1ccc(NS(=O)(=O)c2ccc(C)c(C(=O)N3CCN(c4ccccc4OC)CC3)c2)cc1` the value was 4.30 to 6.00; for `C=Cc1ccc(S(=O)(=O)Nc2ccc(CCCC)cc2)cc1C(=O)N1CCN(c2ccccc2OC)CC1`, 4.30 to 6.00; for `COc1ccccc1N1CCN(C(=O)c2cc(S(=O)(=O)Nc3ccc(C)c4cc[nH]c34)ccc2C)CC1`, 4.30 to 6.00.
For `COc1ccccc1N1CCN(C(=O)c2cccc(S(=O)(=O)Nc3ccc(C(C)(C)C)cc3)c2)CC1` the value was 4.30 to 6.00; for `CCCCc1ccc(NS(=O)(=O)c2ccc(C)c(C(=O)N3CCN(c4cccnc4OC)CC3)c2)cc1`, 4.30 to 6.00; for `COc1ccccc1N1CCN(C(=O)c2cc(S(=O)(=O)Nc3cccc4cc[nH]c34)ccc2C)CC1`, 4.30 to 6.00.
`CCOc1ccc(NS(=O)(=O)c2ccc(C)c(C(=O)N3CCN(c4ccccn4)CC3)c2)cc1`: the pIC50 is below 4.30.
Under `CCCCc1ccc(NS(=O)(=O)c2ccc(C)c(C(=O)N3CCN(c4ccncc4)CC3)c2)cc1` stands 4.30 to 6.00; under `CCOC(=O)C(C)Oc1ccc(NS(=O)(=O)c2ccc(C)c(C(=O)N3CCN(c4ccccc4OC)CC3)c2)cc1` (stereo not drawn), 4.30 to 6.00.
Under `CCCCc1ccc(NS(=O)(=O)c2ccc(C)c(C(=O)N3CCN(C(=O)OCC(C)C)CC3)c2)cc1` stands 4.30 to 6.00; under `CCCCc1ccc(NS(=O)(=O)c2ccc(C)c(C(=O)N3CCN(c4ccccc4OC)CC3)c2)c(N(C)C)c1`, 4.30 to 6.00.
For `COc1ccccc1N1CCCN(C(=O)c2cccc(S(=O)(=O)Nc3ccc(Cl)cc3)c2)CC1` the value was below 4.30; for `CCCCc1ccc(NS(=O)(=O)c2ccc(C)c(C(=O)N3CCN(c4ccccc4OC(C)C)CC3)c2)cc1`, 4.30 to 6.00; for `CCCCc1ccc(NS(=O)(=O)c2ccc(C)c(C(=O)N3CCN(C(=O)OC(C)C)CC3)c2)cc1`, 4.30 to 6.00.
In turn, `CCCCc1ccc(NS(=O)(=O)c2ccc(C)c(C(=O)N3CCN(C(=O)Oc4ccccc4)CC3)c2)cc1` had a pIC50 of 4.30 to 6.00.
Molecule `CCCCc1ccc(NS(=O)(=O)c2ccc(C)c(C(=O)N3CCN(C(=O)C4CC4)CC3)c2)cc1` showed a pIC50 of 4.30 to 6.00.
For `COc1ccccc1N1CCN(C(=O)c2cc(S(=O)(=O)Nc3cccc4cccnc34)ccc2C)CC1` the value was 4.30 to 6.00.
For `CCCCc1ccc(NS(=O)(=O)c2ccc(C)c(C(=O)N3CCN(Cc4ccccc4C)CC3)c2)cc1` the value was 4.30 to 6.00.
For the molecule `CCCCc1ccc(NS(=O)(=O)c2ccc(C)c(C(=O)N3CCN(Cc4ccccc4CC)CC3)c2)cc1`, the pIC50 is 4.30 to 6.00.
For the molecule `COc1ccccc1N1CCN(C(=O)c2cc(S(=O)(=O)Nc3ccc(C)cc3)ccc2C)CC1`, the pIC50 is 4.30 to 6.00.
For `COc1ccccc1N1CCN(C(=O)c2cc(S(=O)(=O)Nc3ccc4[nH]ccc4c3)ccc2C)CC1` the value was 4.30 to 6.00.
For `CCCCc1ccc(NS(=O)(=O)c2ccc(C)c(C(=O)N3CCN(c4ccc(OC)cc4OC)CC3)c2)cc1` the value was 4.30 to 6.00; for `CCCCc1ccc(NS(=O)(=O)c2ccc(C)c(C(=O)N3CCN(c4cccc(Cl)c4)CC3)c2)cc1`, 4.30 to 6.00.
For `CCCCc1ccc(NS(=O)(=O)c2ccc(C)c(C(=O)N3CCN(C(=O)OCC)CC3)c2)cc1` the value was 4.30 to 6.00; for `COCCOCOc1ccc(NS(=O)(=O)c2ccc(C)c(C(=O)N3CCN(c4ccccc4C)CC3)c2)cc1`, 4.30 to 6.00.
As to `CCCCc1ccc(NS(=O)(=O)c2cccc(C(=O)N3CCN(c4ncc(C)cc4Cl)CC3)c2)cc1`, the pIC50 was 4.30 to 6.00.
Under `CCCCc1ccc(NS(=O)(=O)c2ccc(C)c(C(=O)N3CCN(c4ccccc4-c4ccccc4)CC3)c2)cc1` stands 4.30 to 6.00; under `COc1ccccc1N1CCN(C(=O)c2cc(S(=O)(=O)Nc3ccc(OC(C)C)cc3)ccc2C)CC1`, 4.30 to 6.00; under `CCCCc1ccc(NS(=O)(=O)c2cccc(C(=O)N3CCN(c4ccncc4)CC3)c2)cc1`, 4.30 to 6.00.

One may read the pIC50 as the IC50 on a negative log10 scale, so that one unit is a factor of ten. Read a low pIC50 as a large IC50.
